Measurements taken from PubChem BioAssay AID248 (DTP/NCI, 2004).
Values joined by “and” are separate entries in the source; they are usually repeats but may differ in a detail not shown here. Equal values may be shown once. Inconclusive results and toxic doses are left out. Cut-off read from the data, not from the text of the source: active = T/C of 150% or more; inactive = T/C below 125%.

Tested on: L1210 leukemia ip in BDF1 mice, survival T/C
Experiment: NCI In Vivo Anticancer Drug Screen. Data for tumor model L1210 Leukemia (intraperitoneal) in B6D2F1 (BDF1) mice
Conditions: endpoint: mean survival time, higher = longer survival
Outline: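 Transplanted-tumor mice were given test agent; controls received vehicle only. Survival readings from the two groups were divided (treated over control).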

[1] = dose: 100.0 mg/kg/injection, schedule: Q04DX003 (ip), vehicle: saline with Tween-80
[2] = dose: 200.0 mg/kg/injection, schedule: Q04DX003 (ip), vehicle: saline with Tween-80
[3] = dose: 400.0 mg/kg/injection, schedule: Q04DX003 (ip), vehicle: saline with Tween-80
[4] = dose: 100.0 mg/kg/injection, schedule: Q01DX001 (ip), vehicle: saline
[5] = dose: 200.0 mg/kg/injection, schedule: Q01DX001 (ip), vehicle: saline
[6] = dose: 400.0 mg/kg/injection, schedule: Q01DX001 (ip), vehicle: saline
[7] = dose: 100.0 mg/kg/injection, schedule: Q01DX009 (ip), vehicle: saline with Tween-80
[8] = dose: 200.0 mg/kg/injection, schedule: Q01DX009 (ip), vehicle: saline with Tween-80
[9] = dose: 400.0 mg/kg/injection, schedule: Q01DX009 (ip), vehicle: saline with Tween-80
[10] = dose: 100.0 mg/kg/injection, schedule: Q01DX001 (ip), vehicle: Klucel (hydroxypropylcellulose) (HPC)
[11] = dose: 200.0 mg/kg/injection, schedule: Q01DX001 (ip), vehicle: Klucel (hydroxypropylcellulose) (HPC)
[12] = dose: 400.0 mg/kg/injection, schedule: Q01DX001 (ip), vehicle: Klucel (hydroxypropylcellulose) (HPC)
[13] = dose: 100.0 mg/kg/injection, schedule: Q01DX009 (ip), vehicle: Klucel (hydroxypropylcellulose) (HPC)
[14] = dose: 100.0 mg/kg/injection, schedule: Q04DX003 (ip), vehicle: Klucel (hydroxypropylcellulose) (HPC)
[15] = dose: 200.0 mg/kg/injection, schedule: Q04DX003 (ip), vehicle: Klucel (hydroxypropylcellulose) (HPC)
[16] = dose: 400.0 mg/kg/injection, schedule: Q04DX003 (ip), vehicle: Klucel (hydroxypropylcellulose) (HPC)
[17] = dose: 100.0 mg/kg/injection, schedule: Q04DX002 (ip), vehicle: Klucel (hydroxypropylcellulose) (HPC)
[18] = dose: 200.0 mg/kg/injection, schedule: Q04DX002 (ip), vehicle: Klucel (hydroxypropylcellulose) (HPC)
[19] = dose: 400.0 mg/kg/injection, schedule: Q04DX002 (ip), vehicle: Klucel (hydroxypropylcellulose) (HPC)

Measured: T/C

OC(c1ccccc1)(c1ccccc1)c1cccs1
inactive: [1] 94 % of control | [2] 94 % of control | [3] 91 % of control

CCCCOC(=O)Nc1ccc(OCC)cc1
inactive: [4] 107 % of control | [5] 95 % of control | [6] 93 % of control

CCOC(=O)C(C(=O)OCC)C(=O)c1cccc2ccc3ccccc3c12
inactive: [1] 96 % of control | [2] 96 % of control | [3] 97 % of control

CCn1c(C)cc(O)cc1=O
inactive: [7] 94 % of control | [8] 92 % of control | [9] 94 % of control

N#C/C(=C\c1ccc2c(c1)CCC2)C(N)=O
inactive: [1] 105 % of control | [2] 95 % of control | [3] 95 % of control

CCOc1ccccc1/C=N\NC(=S)Nc1ccc2cn[nH]c2c1
inactive: dose: 50.0 mg/kg/injection, schedule: Q01DX001 (ip), vehicle: carboxymethylcellulose (CMC) 96 % of control | dose: 100.0 mg/kg/injection, schedule: Q01DX001 (ip), vehicle: carboxymethylcellulose (CMC) 100 % of control | dose: 200.0 mg/kg/injection, schedule: Q01DX001 (ip), vehicle: carboxymethylcellulose (CMC) 102 % of control | dose: 400.0 mg/kg/injection, schedule: Q01DX001 (ip), vehicle: carboxymethylcellulose (CMC) 94 % of control

c1ccc2c(c1)NC1CCCCC21 (stereo not drawn)
inactive: [10] 90 % of control | [11] 97 % of control | [12] 93 % of control

CCOC(=O)CCc1ccc(N=NN(C)C)cc1
inactive: dose: 125.0 mg/kg/injection, schedule: Q01DX009 (ip), vehicle: saline 115 % of control

CCC1CN1P1(=O)OCC(C)(C(=O)OC)CO1 (stereo not drawn)
inactive: [4] 101 % of control | [5] 108 % of control | [6] 101 % of control

Cc1ccc2c(Br)cc(Br)c(O)c2n1
inactive: dose: 25.0 mg/kg/injection, schedule: Q01DX009 (ip), vehicle: Klucel (hydroxypropylcellulose) (HPC) 94 % of control | dose: 50.0 mg/kg/injection, schedule: Q01DX009 (ip), vehicle: Klucel (hydroxypropylcellulose) (HPC) 96 % of control | [13] 97 % of control and 89 % of control | [14] 97 % of control | [15] 112 % of control | [16] 98 % of control

CN(CCN1CCCCC1)C(=O)C(O)(c1ccccc1)C1CCCCC1 (stereo not drawn)
inactive: dose: 75.0 mg/kg/injection, schedule: Q01DX001 (ip), vehicle: saline 96 % of control | dose: 150.0 mg/kg/injection, schedule: Q01DX001 (ip), vehicle: saline 97 % of control

COc1ccc(N=C(c2ccccc2)c2ccc([N+](=O)[O-])cc2)cc1
inactive: [13] 91 % of control | [14] 93 % of control | dose: 200.0 mg/kg/injection, schedule: Q01DX009 (ip), vehicle: Klucel (hydroxypropylcellulose) (HPC) 101 % of control | [15] 98 % of control | dose: 400.0 mg/kg/injection, schedule: Q01DX009 (ip), vehicle: Klucel (hydroxypropylcellulose) (HPC) 98 % of control | [16] 98 % of control

CCCCCCCCCCCCCCCCCCNC(=O)Nc1ccc(OC)cc1OC
inactive: [17] 101 % of control | [18] 90 % of control | [19] 90 % of control

Nc1ccccc1-n1cccc1
inactive: dose: 100.0 mg/kg/injection, schedule: Q04DX003 (ip), vehicle: other 100 % of control | dose: 200.0 mg/kg/injection, schedule: Q04DX003 (ip), vehicle: other 113 % of control | dose: 400.0 mg/kg/injection, schedule: Q04DX003 (ip), vehicle: other 100 % of control

CC1CN=C(c2ccc([N+](=O)[O-])cc2)S1 (stereo not drawn)
inactive: [10] 100 % of control | [11] 95 % of control | [12] 94 % of control

CC(=O)Oc1ccc(OC(C)=O)c2c1C=CC=CC2
inactive: [1] 104 % of control | [2] 86 % of control | [3] 94 % of control

Cc1cc2nncn2c2ccccc12
inactive: dose: 50.0 mg/kg/injection, schedule: Q01DX001 (ip), vehicle: saline 103 % of control | [4] 101 % of control | [5] 101 % of control

CCOC(=O)C1(CCC(C)=O)CCCCC1=O (stereo not drawn)
inactive: [17] 97 % of control | [18] 103 % of control | [19] 100 % of control

Nc1ncnc2c1nnn2C1CC2COP(=O)(O)OC2C1O (stereo not drawn)
inactive: dose: 44.0 mg/kg/injection, schedule: Q01DX007 (ip), vehicle: saline with Tween-80 103 % of control | dose: 67.0 mg/kg/injection, schedule: Q01DX007 (ip), vehicle: saline with Tween-80 114 % of control | dose: 100.0 mg/kg/injection, schedule: Q01DX007 (ip), vehicle: saline with Tween-80 101 % of control

O=C1OC(COCC#Cc2ccccc2)CN1c1ccccc1 (stereo not drawn)
inactive: [7] 105 % of control | [1] 95 % of control | [8] 106 % of control | [2] 101 % of control | [9] 103 % of control | [3] 100 % of control

Cc1ccc2c(C)c(C)c(=O)n(C)c2c1
inactive: dose: 100.0 mg/kg/injection, schedule: Q01DX001 (ip), vehicle: other 104 % of control | dose: 200.0 mg/kg/injection, schedule: Q01DX001 (ip), vehicle: other 98 % of control | dose: 400.0 mg/kg/injection, schedule: Q01DX001 (ip), vehicle: other 95 % of control

c1nc2c([nH]1)CCCCC2
inactive: dose: 12.5 mg/kg/injection, schedule: Q01DX001 (ip), vehicle: saline with Tween-80 100 % of control | dose: 25.0 mg/kg/injection, schedule: Q01DX001 (ip), vehicle: saline with Tween-80 97 % of control | dose: 25.0 mg/kg/injection, schedule: Q01DX009 (ip), vehicle: other 104 % of control and 106 % of control | dose: 25.0 mg/kg/injection, schedule: Q04DX002 (ip), vehicle: other 99 % of control and 110 % of control | dose: 50.0 mg/kg/injection, schedule: Q01DX001 (ip), vehicle: saline with Tween-80 100 % of control | dose: 50.0 mg/kg/injection, schedule: Q01DX009 (ip), vehicle: other 101 % of control and 88 % of control | dose: 50.0 mg/kg/injection, schedule: Q04DX002 (ip), vehicle: other 105 % of control and 113 % of control | dose: 100.0 mg/kg/injection, schedule: Q04DX002 (ip), vehicle: other 100 % of control and 103 % of control
